Paper PMC4873368 (Cancer research, 2016)

Columns and labels:
[1] = test system: A2780 cells; assay: A2780 cell proliferation screen; format: cell-based; details: Homo sapiens, A2780, 72 h, read-out: EC50 A2780
[2] = test system: human T cells; assay: Cytokine rescue of human T cell proliferation from trametinib; format: cell-based; details: aAPCs, 200 nM trametinib, 7 days; IL-2 20 U/ml, IL-7 2 ng/ml, IL-15 10 ng/ml, IL-21 100 ng/ml, IL-27 50 ng/ml, ALT-803 35.7 ng/ml
[3] = test system: human T cells; assay: Human T cell proliferation with aAPCs; format: cell-based; details: human PBMCs, 7 days
[4] = test system: MEK; assay: Brpkp110 cells MEK signaling, Western blot; format: cell-based, mouse; details: 8 nM or 200 nM trametinib, 18 hr
[5] = test system: Brpkp110 tumors; details: trametinib 1.0 mg/kg oral gavage days 3-13, single intervention
[6] = test system: human T cells; assay: ConA-induced T cell expansion from human PBMCs; format: cell-based; details: 168 h, read-out: EC50 T cells
[7] = test system: ERK1/2 phosphorylation; assay: TCR ligation of human CD8 T cells, Western blot p-ERK1/2; format: cell-based; details: within 10 minutes post-activation, trametinib 8 nM

| Molecule | EC50 [1] [nM] | EC50 [6] [nM] | other results |
| --- | --- | --- | --- |
| CCCS(=O)(=O)Nc1ccc(F)c(C(=O)c2c[nH]c3ncc(-c4ccc(Cl)cc4)cc23)c1F [PLX4032 (vemurafenib), vemurafenib] | > 25000 | – | – |
| IL-21: human IL-21 cytokine | – | – | Rescue of human T cell proliferation in the presence of trametinib [2]: no significant rescuing effect |
| CC(=O)Nc1cccc(-n2c(=O)n(C3CC3)c(=O)c3c(Nc4ccc(I)cc4F)n(C)c(=O)c(C)c32)c1 [GSK1120212 (trametinib), trametinib] | > 25000 | – | Proliferation of human T cells in response to aAPC coated with agonistic CD3 and CD28 antibodies [3]: Comparable results; Signaling through MEK in Brpkp110 cells [4]: can be inhibited; Growth of Brpkp110 tumors [5]: significantly reduced the growth |
| COc1ncc(-c2ccc3nccc(-c4ccnnc4)c3c2)cc1NS(=O)(=O)c1ccc(F)cc1F [GSK2126458 (omipalisib), omipalisib] | 155 | 0.237 | – |
| Cc1cc([C@@H](C)Nc2ccccc2C(=O)O)c2nc(N3CCOCC3)cc(=O)n2c1 [AZD6482] | > 25000 | – | – |
| CN(C)C(=O)c1cc2cnc(Nc3ccc(N4CCNCC4)cn3)nc2n1C1CCCC1 [LEE011] | > 25000 | – | – |
| CC(=O)c1c(C)c2cnc(Nc3ccc(N4CCNCC4)cn3)nc2n(C2CCCC2)c1=O [PD0332991 (palbociclib), palbociclib] | – | 110 | – |
| COc1cc(Nc2ncc3c(n2)-c2ccc(Cl)cc2C(c2c(F)cccc2OC)=NC3)ccc1C(=O)O [MLN8237 (alisertib), alisertib] | > 25000 | – | – |
| C[C@]1(O)C[C@@H](c2nc(-c3ccc4ccc(-c5ccccc5)nc4c3)c3c(N)nccn32)C1 [OSI-906 (linsitinib), linsitinib] | > 25000 | > 25000 | – |
| Cn1cnc2c(F)c(Nc3ccc(Br)cc3Cl)c(C(=O)NOCCO)cc21 [AZD6244 (selumetinib), selumetinib] | > 25000 | – | – |
| Cn1ncc(Cl)c1-c1cc(C(=O)N[C@H](CN)Cc2ccc(F)c(F)c2)oc1Cl [GSK2141795] | 2350 | 96 | – |
| CN1CCN(CCOc2cc(OC3CCOCC3)c3c(Nc4c(Cl)ccc5c4OCO5)ncnc3c2)CC1 [AZD0530 (saracatinib), saracatinib] | > 25000 | – | – |
| IL-15: Recombinant human IL-15 (Novoprotein) | – | – | Rescue of human T cell proliferation in the presence of trametinib [2]: able to individually rescue the proliferation; Rescue of TCR-induced ERK1/2 phosphorylation from MEK inhibition [7]: can rescue |
| Cc1[nH]c2ccccc2c1CCNCc1ccc(/C=C/C(=O)NO)cc1 [LBH589 (panobinostat), panobinostat] | – | 25 | – |
| CN(C)CC[C@H](CSc1ccccc1)Nc1ccc(S(=O)(=O)NC(=O)c2ccc(N3CCN(Cc4ccccc4-c4ccc(Cl)cc4)CC3)cc2)cc1[N+](=O)[O-] [ABT-737] | – | 61 | – |
| COc1ccc(-c2ccc3c(N4CCOC[C@@H]4C)nc(N4CCOC[C@@H]4C)nc3n2)cc1CO [AZD8055] | 78.3 | 13.6 | – |
| CCN(CCCOc1ccc2c(Nc3cc(CC(=O)Nc4cccc(F)c4)n[nH]3)ncnc2c1)CCOP(=O)(O)O [AZD1152 (barasertib), barasertib] | > 25000 | – | – |
| Cn1c(=O)n(-c2ccc(C(C)(C)C#N)cc2)c2c3cc(-c4cnc5ccccc5c4)ccc3ncc21 [BEZ235 (dactolisib), dactolisib] | 21 | 2.4 | – |
| IL-7: mouse IL-7 (Peprotech) (protein, UniProt P10168 26-154, looked up) Interleukin-7: ECHIKDKEGKAYESVLMISIDELDKMTGTDSNCPNNEPNFFRKHVCDDTKEAAFLNRAARKLKQFLKMNISEEFNVHLLTVSQGTQTLVNCTSKEEKNVKEQKKNDACFLKRLLREIKTCWNKILKGSI | – | – | Rescue of human T cell proliferation in the presence of trametinib [2]: able to individually rescue the proliferation |
| IL-27: human IL-27 (eBioscience) (protein, UniProt Q8NEV9 29-243; Q14213 21-229, looked up) Interleukin-27 subunit alpha: FPRPPGRPQLSLQELRREFTVSLHLARKLLSEVRGQAHRFAESHLPGVNLYLLPLGEQLPDVSLTFQAWRRLSDPERLCFISTTLQPFHALLGGLGTQGRWTNMERMQLWAMRLDLRDLQRHLRFQVLAAGFNLPEEEEEEEEEEEEERKGLLPGALGSALQGPAQVSWPQLLSTYRLLHSLELVLSRAVRELLLLSKAGHSVWPLGFPTLSPQP Interleukin-27 subunit beta: RKGPPAALTLPRVQCRASRYPIAVDCSWTLPPAPNSTSPVSFIATYRLGMAARGHSWPCLQQTPTSTSCTITDVQLFSMAPYVLNVTAVHPWGSSSSFVPFITEHIIKPDPPEGVRLSPLAERQLQVQWEPPGSWPFPEIFSLKYWIRYKRQGAARFHRVGPIEATSFILRAVRPRARYYVQVAAQDLTDYGELSDWSLPATATMSLGK | – | – | Rescue of human T cell proliferation in the presence of trametinib [2]: no significant rescuing effect |
